Entries after “also recorded” stand apart in the source; their conditions may differ.
Legend:
[1] = tested on: IL6, IL1b, S100A8, TNFα, Reg3g, IL17a mRNA; assay: Colonic mRNA levels of proinflammatory cytokines and biomarkers in DSS-induced colitis mice (real-time PCR); format: in vivo, C56BL/6J mouse; conditions: 126 and 252 mg/kg per day; normalized to HPRT; vs untreated mice
Procedure: The C56BL/6J mouse is a strain susceptible to DSS-induced colitis. To evaluate the efficacy and dosage of Compound B in treatment of DSS-induced colitis, inflammation was induced in 30 9-week old C56BL/6J mice by adding 1.5% DSS to the drinking water for 7 days. The mice were fed a standard chow diet that consisted of 30 weight percent wheat. The mice were divided into three groups of 10, and for each day of DSS administration each group was administered via oral gavage either (1) 100 μL corn oil per day (Control), (2) 126 mg/kg Compound B (dissolved in 100 μL corn oil) per day (“Compound B—Low” or “Compound B—L”), or (3) 252 mg/kg Compound B (dissolved in 100 μL corn oil) per day (“Compound B—High” or “Compound B—H”). Following the 7-day period of DSS induction, mice were sacrificed and their intestinal tissue was used for histopathological and gene expression analysis.
To evaluate the effect of treatment with Compound B on the levels of proinflammatory cytokines and biomarkers, total RNA was extracted from small and large intestinal tissue samples (>100 mg). cDNA was synthesized by reverse transcription and analyzed by real-time PCR. Results were normalized to the level of the housekeeping gene hypoxanthine guanine phosphoribosyltransferase (HPRT). The relative mRNA expression of the tested gene relative to HPRT expression was calculated using the 2^−ΔΔCt method as described in Pickert et al., J. Exp. Med., 2009, 206:1465-1472. Interleukin 6 (IL6), IL1b, calgranulin-A (S100A8), and tumor necrosis factor α (TNFα) have been implicated as mediators of IBD, including both ulcerative colitis and Crohn's disease. IL6, IL1b, and calgranulin-A are prominently expressed in inflammatory macrophages. IL22-dependent regenerating islet-derived 3 gamma (Reg3g) is induced in response to inflammation in epithelial cells. IL17 is secreted by Th17 T helper cells and innate lymphoid cells type 3 (ILC3).

plasma insulin = assay: Plasma insulin at 24 h after OGTT in lean male SPD rats; format: in vivo, Sprague-Dawley (SPD) rats; conditions: non-significant
Procedure: Evaluation of the Acute Effects of Compound a and Compound B Upon Active GLP-1 wconcentrations during an oral glucose tolerance test (OGTT) and at 24 h in lean male SPD Rats
To establish the acute effects of oral administration of Compound A and Compound B upon active GLP-1 and insulin concentrations, lean (about 300 g) male Sprague-Dawley (SPD) rats were divided into groups (n=6-8) and fed 74 and 84 mg/kg body weight of Compound A or Compound B respectively, either with or without concurrent administration of a dipeptidyl peptidase 4 (DPP-4) inhibitor 60 minutes prior to an oral glucose tolerance test (OGTT) as outlined below. Parallel groups receiving either corn oil alone (corn oil+vehicle, n=10) or corn oil and a DPP-4 inhibitor (“DPP-4 i”) (corn oil+(DPP-4 i), n=10) were included as controls. The DPP-4 inhibitor was linagliptin.
A second oral dose of 74 and 84 mg/kg bodyweight of Compound A or Compound B respectively was administered at 240 minutes and ad lib feeding was initiated. A second dose of DPP-4 inhibitor was administered at 480 mins prior to lights out. Blood samples were collected at 24 h for measurement of active GLP-1 and insulin. All values are mean, figures depict mean values (SEM).

[2] = tested on: B6.V-Lepob/Jrj mice (ob/ob), T2DM rodent model; assay: Glucose tolerance (0-120 mins) after 28-day treatment in ob/ob mice; format: in vivo; conditions: 28 days; for glucose tolerance: 2 g/kg oral glucose load
Procedure: This study was carried out to assess the effects of chronic treatment with Compound B or Compound A on glucose tolerance in a T2DM rodent model.
For assessing the effects of Compound B, B6.V-Lepob/Jrj mice (ob/ob) mice were administered Compound B at one of 2 doses, 125 and 250 mg/kg for 28 days. […] After the oral glucose load, plasma glucose was measured at multiple time points from and AUC (0-120 mins) for glucose was calculated.

[3] = 250 mg/kg once daily oral gavage

What does the source list for `CC/C=C\C/C=C\C/C=C\C/C=C\C/C=C\CCCCSC(CC)(CC)C(=O)O` [Compound B, 2-ethyl-2-((5Z,8Z,11 Z,14Z,17Z)-icosa-5,8,11,14,17-pentaenylthio)butanoic acid]?
relative colonic mRNA level of IL1b [1]: reduced colonic expression; also recorded: dose-dependent decrease; relative colonic mRNA level of IL6 [1]: reduced colonic expression; also recorded: dose-dependent decrease; relative colonic mRNA level of IL17a [1]: lack of change; relative colonic mRNA level of Reg3g [1]: reduced colonic expression; also recorded: dose-dependent decrease; relative colonic mRNA level of S100A8 [1]: reduced colonic expression; also recorded: dose-dependent decrease; relative colonic mRNA level of TNFα [1]: reduced colonic expression; also recorded: dose-dependent decrease; increase of plasma insulin concentrations at 24 h versus corn oil+vehicle and corn oil+DPP4 inhibitor (plasma insulin; compound alone): 25%; increase of plasma insulin concentrations at 24 h versus corn oil+vehicle and corn oil+DPP4 inhibitor (plasma insulin; in combination with DPP4 inhibitor (linagliptin)): 40%; glucose tolerance ([2]; 125 mg/kg once daily oral gavage): improved glucose tolerance; AUC (0-120 mins) glucose [2, 3]: potent and highly significant (p<0.001) reduction; glucose tolerance [2, 3]: improved glucose tolerance

Reference: patent publication US20210290576A1, “STRUCTURALLY MODIFIED FATTY ACIDS FOR IMPROVING GLYCEMIC CONTROL AND TREATING INFLAMMATORY BOWEL DISEASE” (NORTHSEA THERAPEUTICS B.V., priority 2018, published 2021)
